In PMC7894401 (CPT: Pharmacometrics & Systems Pharmacology, 2020):
Where “and” joins values, the source holds several entries; their conditions need not be identical. Identical values can stand only once. Like-named read-outs stand apart in the source and are kept apart here.

Tests used:
[1] = blood/plasma ratio; ref 45 (ertugliflozin), 46 (dapagliflozin); cited from earlier work
UGT2B4/2B7 [2] = conditions: in vitro UGT reaction phenotyping, assigned to UGT2B7 in model; cited from earlier work
PBPK model = experiment: PBPK model; set-up: species or system human
[3] = fraction unbound in plasma; ref 45 (ertugliflozin), 46 (dapagliflozin); cited from earlier work
CYP2C8 [4] = experiment: CYP2C8 contribution to metabolism; format: in vitro ADME, human
CYP3A4 [5] = experiment: CYP3A4 contribution to metabolism; format: in vitro ADME, human
CYP3A5 [6] = conditions: in vitro CYP reaction phenotyping, cited from earlier work
UGT1A9 [7] = target: T1, UGT1A9 (Homo sapiens, UniProt O60656); conditions: in vitro UGT reaction phenotyping; cited from earlier work
T1 sequence (O60656 26-530): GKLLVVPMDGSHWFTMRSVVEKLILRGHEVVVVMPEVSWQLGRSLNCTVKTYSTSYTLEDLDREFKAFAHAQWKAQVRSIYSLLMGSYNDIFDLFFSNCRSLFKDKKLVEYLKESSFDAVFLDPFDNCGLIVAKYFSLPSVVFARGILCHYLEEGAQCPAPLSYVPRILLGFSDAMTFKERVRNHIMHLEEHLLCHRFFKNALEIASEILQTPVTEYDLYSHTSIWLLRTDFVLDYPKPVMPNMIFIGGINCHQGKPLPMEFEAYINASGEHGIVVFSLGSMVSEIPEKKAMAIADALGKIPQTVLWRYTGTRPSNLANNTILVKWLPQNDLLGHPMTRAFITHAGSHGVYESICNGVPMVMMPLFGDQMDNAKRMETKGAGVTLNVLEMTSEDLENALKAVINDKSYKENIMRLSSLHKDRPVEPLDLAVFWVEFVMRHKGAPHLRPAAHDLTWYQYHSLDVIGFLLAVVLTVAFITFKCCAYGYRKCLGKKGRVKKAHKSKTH

CYP3A5 [8] = experiment: CYP3A5 contribution to metabolism; format: in vitro ADME, human
CYP3A4 [9] = conditions: in vitro CYP reaction phenotyping, cited from earlier work
Caco‐2 = conditions: ref 17 (ertugliflozin), 46 (dapagliflozin); cited from earlier work
[10] = human ADME study, ref 12 (ertugliflozin), 23 (dapagliflozin), cited from earlier work
[11] = Human ADME study with 14C-labelled drug: excretion and metabolite recovery; format: in vivo; conditions: human ADME study (ertugliflozin ref 12, dapagliflozin ref 23)
CYP2C8 [12] = conditions: in vitro CYP reaction phenotyping, cited from earlier work
UGT1A9 [13] = target: T1, UGT1A9; experiment: UGT1A9 contribution to metabolism; format: in vitro ADME
[14] = cited from earlier work; for Observed AUCinf / Observed Cmax: geometric mean (%CV)
UGT = conditions: ref 18 (ertugliflozin), 39 (dapagliflozin); cited from earlier work
[15] = Simcyp input; ref 42 (ertugliflozin), DrugBank 50 (dapagliflozin), DrugBank 49 (MFA); cited from earlier work
UGT2B4/2B7 [16] = experiment: UGT2B4/2B7 contribution to metabolism; format: in vitro ADME, human; conditions: calculated from clinical ADME and reaction phenotyping data
[17] = test system: UGT2B7 (UGT2B4/2B7 contribution assigned to UGT2B7); experiment: UGT2B4/2B7 contribution to metabolism; format: in vitro ADME, human; conditions: human
[18] = ertugliflozin multiple oral dose 5 mg once daily
[19] = ertugliflozin multiple oral dose 15 mg once daily
[20] = ertugliflozin single dose 0.1 mg administered intravenously
[21] = ertugliflozin single oral dose 0.5 mg
[22] = ertugliflozin single oral dose 2.5 mg
[23] = ertugliflozin single oral dose 10 mg
[24] = ertugliflozin single oral dose 15 mg
[25] = ertugliflozin single oral dose 30 mg
[26] = ertugliflozin single oral dose 100 mg
[27] = ertugliflozin single oral dose 300 mg
[28] = retrospectively calculated from CLiv, CLr, CYP fm and reaction phenotyping

CCOc1ccc(Cc2cc([C@]34OC[C@](CO)(O3)[C@@H](O)[C@H](O)[C@H]4O)ccc2Cl)cc1 [Ertugliflozin, ertugliflozin]
B/P ratio [1]: 0.66
Relative contribution of UGT2B4/2B7 to glucuronidation (UGT2B4/2B7 [2]): 19%
AUC predicted/ observed ratio (PBPK model; [18]): 1.03
Cmax predicted/ observed ratio (PBPK model; [18]): 1.22
AUC predicted/ observed ratio (PBPK model; [19]): 0.97
Cmax predicted/ observed ratio (PBPK model; [19]): 1.04
AUC predicted/ observed ratio (PBPK model; [20]): 1.08
Cmax predicted/ observed ratio (PBPK model; [20]): 0.98
AUC predicted/ observed ratio (PBPK model; [21]): 0.82
Cmax predicted/ observed ratio (PBPK model; [21]): 1.16
AUC predicted/ observed ratio (PBPK model; [22]): 0.81
Cmax predicted/ observed ratio (PBPK model; [22]): 0.98
AUC predicted/ observed ratio (PBPK model; [23]): 0.82
Cmax predicted/ observed ratio (PBPK model; [23]): 0.92
AUC predicted/ observed ratio (PBPK model; [24]): 0.81
Cmax predicted/ observed ratio (PBPK model; [24]): 0.97
AUC predicted/ observed ratio (PBPK model; [25]): 0.80
Cmax predicted/ observed ratio (PBPK model; [25]): 0.92
AUC predicted/ observed ratio (PBPK model; [26]): 0.78
Cmax predicted/ observed ratio (PBPK model; [26]): 1.04
AUC predicted/ observed ratio (PBPK model; [27]): 0.83
Cmax predicted/ observed ratio (PBPK model; [27]): 1.13
Fu,plasma [3]: 0.064
fm,CYP2C8 observed (CYP2C8 [4]; fm,CYP × % contribution): 0.005
CLint, CYP: CYP2C8 (CYP2C8 [4]; [28]): 0.011 µL/min/pmol
fm,CYP3A4 observed (CYP3A4 [5]; fm,CYP × % contribution): 0.103
CLint, CYP: CYP3A4 (CYP3A4 [5]; [28]): 0.041 µL/min/pmol
Contribution of CYP3A5 to oxidative metabolism (CYP3A5 [6]): 10%
Contribution of CYP3A5 to oxidative metabolism (CYP3A5 [6]; listed as ertugliflozin): 10% and 0–10%
Relative contribution of UGT1A9 to glucuronidation (UGT1A9 [7]): 81%
fm,CYP3A5 observed (CYP3A5 [8]; fm,CYP × % contribution): 0.012
CLint, CYP: CYP3A5 (CYP3A5 [8]; [28]): 0.006 µL/min/pmol
Contribution of CYP3A4 to oxidative metabolism (CYP3A4 [9]): 86%
Contribution of CYP3A4 to oxidative metabolism (CYP3A4 [9]; listed as ertugliflozin): 86% and 85–100%
Caco‐2 permeability coefficient (Caco‐2): 4.1 10^–6 cm/s
Renal excretion of unchanged drug ([10]; % of dose): ~ 2%
Elimination by glucuronidation [10]: ~ 86%
Elimination by oxidation (converted to oxidative metabolites) [10]: ~ 12%
Fe observed (fraction excreted unchanged in urine) [11]: 0.02
Contribution of CYP2C8 to oxidative metabolism (CYP2C8 [12]): 4%
Contribution of CYP2C8 to oxidative metabolism (CYP2C8 [12]; listed as ertugliflozin): 4% and 0–4%
fm,UGT1A9 observed (UGT1A9 [13]; calculated from clinical ADME and reaction phenotyping data): 0.70
microsomal CLint (UGT1A9 [13]; human): 35 µL/min/mg
Vss ([14]; after i.v. administration, ref 15 (ertugliflozin), 38 (dapagliflozin)): 1.23 L/kg
Observed AUCinf [14, 21]: 45.7 (10) ng·h/mL
Observed Cmax [14, 21]: 7.23 (11) ng/mL
Observed AUCinf [14, 22]: 231 (22) ng·h/mL
Observed Cmax [14, 22]: 42.8 (21) ng/mL
Observed AUCinf [14, 23]: 909 (15) ng·h/mL
Observed Cmax [14, 23]: 182 (22) ng/mL
Observed AUCinf [14, 25]: 2810 (18) ng·h/mL
Observed Cmax [14, 25]: 545 (24) ng/mL
Observed AUCinf [14, 26]: 9610 (16) ng·h/mL
Observed Cmax [14, 26]: 1620 (16) ng/mL
Observed AUCinf [14, 27]: 26400 (16) ng·h/mL
Observed Cmax [14, 27]: 4330 (20) ng/mL
Fa ([14]; fraction absorbed, absolute bioavailability study): 1.0
CLiv ([14]; intravenous plasma clearance, ref 15 (ertugliflozin), 38 (dapagliflozin)): 11.2 L/h
Share of systemic UGT clearance occurring in the liver (UGT): 90%
LogP [15]: 2.5
fm,UGT2B7 observed (UGT2B4/2B7 [16]): 0.16
microsomal CLint [17]: 8 µL/min/mg
